Assay results as given in US20240335541A1, “NANOMATERIALS COMPRISING DIAMINES” (Beam Therapeutics Inc., priority 2021, published 2024).

How the values were obtained:
[1] = LNP hydrodynamic diameter and PDI by DLS (Example 16 LNPs, Stunner); format: physicochemical; details: Example 16 LNPs: 47.5% Ionizable Lipid: 40% cholesterol: 2.5% PEG-2000 DMG: 10% DPSC, N/P 4-8
Experimental: (§1) LNPs were prepared with 47.5% Ionizable Lipid (e.g., a compound provided herein): 40% cholesterol: 2.5% PEG-2000 DMG: 10% DPSC and an N/P ratio range of 4-8. LNPs were formed by microfluidic mixing of the lipid and NA solutions using a Precision Nanosystems NanoAssemblr Spark or Benchtop series Instruments, according to the manufacturer's protocol. A ratio of aqueous to organic solvent of approximately 2:1 or 3:1 was maintained during mixing using differential flow rates. After mixing, LNPs were collected, diluted in phosphate buffer saline (PBS) or Tris-buffered saline (TBS) (approximately 1:1 v/v). Further buffer exchange was conducted using dialysis in PBS or TBS at 4° C. for 4 to 24 hours against a 20 kDa filter. After this initial dialysis, each individual LNP preparation was characterized via dynamic light scattering (DLS) to measure the size (e.g., diameter) and polydispersity. LNPs falling within specific diameter and polydispersity ranges were pooled, and further dialyzed against PBS or TBS at 4° C. for 1 to 4 hours against a 100 kDa dialysis cassette. After the second dialysis, LNPs were sterile filtered using 0.22 μm filter and stored at 4° C. for further use.
LNP hydrodynamic diameter and polydispersity index (PDI) were measured using high throughput dynamic light scattering (DLS) (Stunner, Unchained Labs). LNPs were diluted 1×TBS or PBS to an appropriate concentration and analyzed.

[2] = LNP encapsulation efficiency by Ribogreen assay (Example 16 LNPs); format: physicochemical; details: Example 16 LNPs: 47.5% Ionizable Lipid: 40% cholesterol: 2.5% PEG-2000 DMG: 10% DPSC, N/P 4-8
Experimental: as §1
RNA concentration and encapsulation efficiency were determined by Ribogreen assay (BioTek Synergy LX plate reader).

[3] = LNP hydrodynamic diameter and polydispersity by DLS (Example 1 LNPs); format: physicochemical; details: LNPs prepared according to Example 1, total lipid to NA mass ratio 11.7
Experimental: LNPs were prepared with a total lipid to NA mass ratio of 11.7. LNPs were formed by microfluidic mixing of the lipid and NA solutions using a Precision Nanosystems NanoAssemblr Spark or Benchtop series Instruments, according to the manufacturers protocol. A ratio of aqueous to organic solvent of approximately 2:1 or 3:1 was maintained during mixing using differential flow rates. After mixing, LNPs were collected, diluted in PBS (approximately 1:1 v/v). Further buffer exchange was conducted using dialysis in PBS at 4° C. for 4 to 24 hours against a 20 kDa filter. After this initial dialysis, each individual LNP preparation was characterized via dynamic light scattering (DLS) to measure the size (e.g., diameter) and polydispersity. In addition, pKa of a subpopulation of LNPs was measured via a 2-(p-toluidino)-6-napthalene sulfonic acid (TNS) assay. LNPs falling within specific diameter and polydispersity ranges are pooled, and further dialyzed against phosphate buffer saline (PBS) at 4° C. for 1 to 4 hours against a 100 kDa dialysis cassette. After the second dialysis, LNPs were sterile filtered using […] filter and stored at 4° C. for further use.
DLS-LNP hydrodynamic diameter and polydispersity index (PDI) were measured using high throughput dynamic light scattering (DLS) (DynaPro plate reader II, Wyatt). LNPs were diluted 1×PBS to an appropriate concentration and analyzed.
Lipid nanoparticle components were dissolved in 100% ethanol at specified lipid component molar ratios. Nucleic acid (NA) cargo was dissolved in 10 mM citrate, 100 mM NaCl, pH 4.0, resulting in a concentration of NA cargo of approximately 0.22 mg/mL. In some embodiments, NA cargos included both a functional NA and a reporter DNA barcode mixed at mass ratios of 1:10 to 10:1 functional NA to barcode. LNPs were formulated with a total lipid to NA mass ratio of 11.7. LNPs were formed by microfluidic mixing of the lipid and NA solutions using a Precision Nanosystems NanoAssemblr Spark or Benchtop series Instruments, according to the manufacturer's protocol. A 2:1 or 3:1 ratio of aqueous to organic solvent was maintained during mixing using differential flow rates. After mixing, LNPs were collected, diluted in PBS (approximately 1:1 v/v), and further buffer exchange was conducted using dialysis in PBS at 4° C. for 8 to 24 hours against a 20 kDa filter. After this initial dialysis, each individual LNP formulation was characterized via DLS to measure the size and polydispersity, and the pKa of a subpopulation of LNPs is measured via TNS assay. After dialysis, LNPs were sterile filtered using 0.22 micron sterile filter and stored at 4° C. for further use.
LNP hydrodynamic diameter and polydispersity index (PDI) were measured using high throughput dynamic light scattering (DLS) (DynaPro plate reader II, Wyatt). LNPs were diluted 1×PBS to an appropriate concentration and analyzed.

[4] = LNP encapsulation efficiency, unlysed vs lysed LNPs, Qubit kit (Example 1 LNPs); format: physicochemical; details: LNPs prepared according to Example 1; total lipid to NA mass ratio 11.7
Experimental: Concentration of NA was determined by Qubit microRNA kit (for siRNA) or HS RNA kit (for mRNA) per manufacturer's instructions. Encapsulation efficiency was determined by measuring nucleic acid concentration in unlysed and lysed LNPs. Encapsulation efficiency was determined by measuring unlysed and lysed LNPs.

[5] = test system: human ALAS1 target site; experiment: In vivo base editing with LNP carrying adenine base editor mRNA and sgRNA, targeted deep sequencing; details: 3.0 mg/kg dose IV; NBSGW mice engrafted with human CD34+ cells; four to six days post-dose
Experimental: Exemplary LNP preparations were selected to determine each preparation's ability to perform base editing in a NBSGW mouse model as described herein.
Lipid nanoparticle components were dissolved in 100% ethanol at specified lipid component molar ratios. mRNA encoding an adenine base editor and a chemically-modified sgRNA were dissolved at a mass ratio of 1:1 in 10 mM citrate, pH 3.0, resulting in a concentration of NA cargo of approximately 0.2 mg/mL.
LNP preparations were formulated with molar ratios of 50% Ionizable Lipid: 38.5% Cholesterol: 1.5% PEG2000-DMG: 10% DSPC total lipid to NA mass ratio of 19 to 1.
LNP preparations were formed by microfluidic mixing of the lipid and NA solutions using a Precision Nanosystems NanoAssemblr Spark series Instruments, according to the manufacturer's protocol.
A 3:1 ratio of aqueous to organic solvent was maintained during mixing using differential flow rates. […] After this initial dialysis, each individual LNP preparation was characterized via dynamic light scattering (DLS) to measure size and polydispersity. pKa of a subpopulation of LNP preparations was measured via TNS assay. […]
Age-matched mice were also used to administer vehicle (1×PBS) via tail vein injection as a control. […] Base editing was determined by performing targeted deep sequencing analysis at the human ALAS1 target site using extracted genomic DNA. […]

Structure (SMILES)	Mean Diameter [1] [nm]	Mean PDI [1]	Mean Encapsulation Efficiency [2] [%]	Mean Diameter [3] [nm]	Mean PDI [3] [%]	Mean Encapsulation Efficiency [4] [%]	base editing in bulk bone marrow [5] [%]
CC/C=C\CCCCOC(CCC(=O)OCCCCCCN(CCO)CCCN(CCCCCCCCCOC(=O)C(CCCC)CCCCCC)CCCCCCCCCOC(=O)C(CCCC)CCCCCC)OCCCC/C=C\CC (stereo not shown) [Example 7-8]	91.0	0.11	61.1	165.2	19.3	85.4	
CC/C=C\CCCCOC(CCC(=O)OCCCCCCCN(CCCCCCCOC(=O)CCC(OCCCC/C=C\CC)OCCCC/C=C\CC)CCN(CCCO)CCCCCCCC(=O)OCCCCCCCCC)OCCCC/C=C\CC [Example 7-19, ((2-((3-hydroxypropyl)(8-(nonyloxy)-8-oxooctyl)amino)ethyl)azanediyl)bis(heptane-7,1-diyl) bis(4,4-bis(((Z)-oct-5-en-1-yl)oxy)butanoate)]	90.6	0.13	70.0	100.8	13.2	92.9	
CC/C=C\CCCCOC(CCC(=O)OCCCCCCCN(CCCO)CCN(CCCCCCCOC(=O)CCC(OCCCC/C=C\CC)OCCCC/C=C\CC)CCCCCCCOC(=O)CCC(OCCCC/C=C\CC)OCCCC/C=C\CC)OCCCC/C=C\CC [Example 7-17]				85.9	10.8	97.2	
CC/C=C\CCCCOC(CCC(=O)OCCCCCCCN(CCO)CCN(CCCCCCCOC(=O)CCC(OCCCC/C=C\CC)OCCCC/C=C\CC)CCCCCCCOC(=O)CCC(OCCCC/C=C\CC)OCCCC/C=C\CC)OCCCC/C=C\CC [Example 7-11]				79.8	9.4	96.4	
CC/C=C\CCCCOC(CCC(=O)OCCCCCCCN(CCCCCCCOC(=O)CCC(OCCCC/C=C\CC)OCCCC/C=C\CC)CCN(CCO)CCCCCCCC(=O)OCCCCCCCCC)OCCCC/C=C\CC [Example 7-13, ((2-((2-hydroxyethyl)(8-(nonyloxy)-8-oxooctyl)amino)ethyl)azanediyl)bis(heptane-7,1-diyl) bis(4,4-bis(((Z)-oct-5-en-1-yl)oxy)butanoate)]	86.2	0.10	75.4	93.7	14.3	95.9	
CC/C=C\CCCCOC(CCC(=O)OCCCCCCN(CCO)CCN(CCCCCCCCCOC(=O)C(CCCC)CCCCCC)CCCCCCCCCOC(=O)C(CCCC)CCCCCC)OCCCC/C=C\CC (stereo not shown) [Example 7-15]	77.3	0.10	70.1	77.9	9.2	95.6	
CC/C=C\CCCCOC(CCC(=O)OCCCCCCCN(CCCCCCCOC(=O)CCC(OCCCC/C=C\CC)OCCCC/C=C\CC)CCCN(CCO)CCCCCCCC(=O)OCCCCCCCCC)OCCCC/C=C\CC [Example 7-4, ((3-((2-hydroxyethyl)(8-(nonyloxy)-8-oxooctyl)amino)propyl)azanediyl)bis(heptane-7,1-diyl) bis(4,4-bis(((Z)-oct-5-en-1-yl)oxy)butanoate)]	95.1	0.10	66.1	106.9	15.4	97.5	
CC/C=C\CCCCOC(CCC(=O)OCCCCCCN(CCCCCCOC(=O)CCC(OCCCC/C=C\CC)OCCCC/C=C\CC)CCN(CCO)CCCCCCCC(=O)OCCCCCCCCC)OCCCC/C=C\CC [Example 7-12, ((2-((2-hydroxyethyl)(8-(nonyloxy)-8-oxooctyl)amino)ethyl)azanediyl)bis(hexane-6,1-diyl) bis(4,4-bis(((Z)-oct-5-en-1-yl)oxy)butanoate)]	74.4	0.11	76.5	89.3	14.9	94.7	
CC/C=C\CCCCOC(CCC(=O)OCCCCCCCN(CCO)CCCN(CCCCCCCOC(=O)CCC(OCCCC/C=C\CC)OCCCC/C=C\CC)CCCCCCCOC(=O)CCC(OCCCC/C=C\CC)OCCCC/C=C\CC)OCCCC/C=C\CC [Example 7-2]				96.1	10.9	96.8	2.2
